Values of other authors as cited in patent US12168000B2, “Methods of treating pain” (Scilex Holding Company, priority 2020, dated 2024).

Key:
[1] = upon oral administration
[2] = hydrophobic and highly permeable drug

Question: With Cc1ccc(-c2cc(C(F)(F)F)nn2-c2ccc(S(N)(=O)=O)cc2)cc1 [Celecoxib, 4-[5-(4-methylphenyl)-3-(trifluoromethyl)-1H-pyrazol-1-yl] benzenesulfonamide] as the compound, how does the “time for peak plasma concentrations” value [1] read?
Answer: approximately 3.0 hours

Question: What about the “class of the biopharmaceutics classification system” value [2] of the same compound?
Answer: class II
